How the values were obtained:
[1] = biological target: T1, human FPR2 (Homo sapiens, UniProt P25090); test: FPR2 cyclic adenosine monophosphate (cAMP) assay; assay type: cell-based; settings: CHO cells overexpressing human FPR2; forskolin 5 μM; inhibition of cAMP production; HTRF; read-out: hFPR2 cAMP2 EC50
T1 sequence (P25090 1-351): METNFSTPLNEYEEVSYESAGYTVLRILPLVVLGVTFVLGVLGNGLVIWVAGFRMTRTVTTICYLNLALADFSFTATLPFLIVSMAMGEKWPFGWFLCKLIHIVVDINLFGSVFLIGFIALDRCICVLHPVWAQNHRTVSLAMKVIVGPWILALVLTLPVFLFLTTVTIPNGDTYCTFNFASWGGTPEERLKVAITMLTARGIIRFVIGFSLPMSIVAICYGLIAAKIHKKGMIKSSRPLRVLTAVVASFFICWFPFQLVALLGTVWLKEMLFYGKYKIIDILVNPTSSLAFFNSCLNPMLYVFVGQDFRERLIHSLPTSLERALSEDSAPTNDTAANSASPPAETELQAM
Method in brief: (§1)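 CHO/hFPR1 4,000 cells/well, forskolin 10 μM final; CHO/hFPR2 2,000 cells/well, forskolin 5 μM final. IBMX 200 μM, DMSO 1%, DPBS + Ca/Mg + 0.1% BSA, 30 min rt. HTRF cAMP; 4-PL fit.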

[2] = biological target: T2, human FPR1 (Homo sapiens, UniProt P21462); test: FPR1 cyclic adenosine monophosphate (cAMP) assay; assay type: cell-based; settings: CHO cells overexpressing human FPR1; forskolin 10 μM; inhibition of cAMP production; HTRF; read-out: hFPR1 cAMP2 EC50
T2 sequence (P21462 1-350): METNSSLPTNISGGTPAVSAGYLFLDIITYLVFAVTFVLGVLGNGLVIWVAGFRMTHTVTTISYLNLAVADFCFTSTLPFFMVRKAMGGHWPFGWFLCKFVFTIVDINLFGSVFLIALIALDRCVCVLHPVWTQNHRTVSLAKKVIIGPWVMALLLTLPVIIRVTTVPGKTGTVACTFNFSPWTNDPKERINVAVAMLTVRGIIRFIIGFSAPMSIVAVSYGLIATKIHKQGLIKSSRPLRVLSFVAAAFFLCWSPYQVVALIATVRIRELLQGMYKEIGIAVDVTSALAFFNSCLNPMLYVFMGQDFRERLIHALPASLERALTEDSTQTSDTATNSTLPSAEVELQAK
Method in brief: as §1

Row | SMILES | EC50 [1] [nM] | EC50 [2] [nM]
1 | COc1cc(F)c(-c2c(NC(=O)c3ccc(OC(F)(F)F)cc3)c(=O)n(-c3cc(Cl)ccn3)n2C)c(F)c1 [Example 153, N-[2-(4-chloropyridin-2-yl)-5-(2,6-difluoro-4-methoxyphenyl)-1-methyl-3-oxo-2,3-dihydro-1H-pyrazol-4-yl]-4-(trifluoromethoxy)benzamide] | 5 | 4200
2 | COc1cc(F)c(-c2c(NC(=O)c3ccc(OC(F)(F)F)cc3)c(=O)n(-c3ncccc3C(F)(F)F)n2C)c(F)c1 [Example 154, N-[5-(2,6-difluoro-4-methoxyphenyl)-1-methyl-3-oxo-2-[3-(trifluoromethyl)pyridin-2-yl]-2,3-dihydro-1H-pyrazol-4-yl]-4-(trifluoromethoxy)benzamide] | 4 | > 10000
3 | COc1cc(F)c(-c2c(NC(=O)c3ccc(OC(F)(F)F)cc3)c(=O)n(-c3cccc(C(F)(F)F)n3)n2C)c(F)c1 [Example 155, N-[5-(2,6-difluoro-4-methoxyphenyl)-1-methyl-3-oxo-2-[6-(trifluoromethyl)pyridin-2-yl]-2,3-dihydro-1H-pyrazol-4-yl]-4-(trifluoromethoxy)benzamide] | 9 | 2200
4 | COc1cc(F)c(-c2c(NC(=O)c3ccc(OC(F)F)cc3)c(=O)n(-c3cccc(C(F)(F)F)n3)n2C)c(F)c1 [Example 156, N-[5-(2,6-difluoro-4-methoxyphenyl)-1-methyl-3-oxo-2-[6-(trifluoromethyl)pyridin-2-yl]-2,3-dihydro-1H-pyrazol-4-yl]-4-(difluoromethoxy)benzamide] | 15 | 4000
5 | COc1cc(F)c(-c2c(NC(=O)c3ccc(OC(F)F)cc3)c(=O)n(-c3nc(C(F)(F)F)ccc3C#N)n2C)c(F)c1 [Example 157, N-{2-[3-cyano-6-(trifluoromethyl)pyridin-2-yl]-5-(2,6-difluoro-4-methoxyphenyl)-1-methyl-3-oxo-2,3-dihydro-1H-pyrazol-4-yl}-4-(difluoromethoxy)benzamide] | 4 | > 10000
6 | COc1cc(F)c(-c2c(NC(=O)c3ccc(OC(F)F)cc3)c(=O)n(-c3ncccc3OC(F)F)n2C)c(F)c1 [Example 158, N-[5-(2,6-difluoro-4-methoxyphenyl)-2-[3-(difluoromethoxy)pyridin-2-yl]-1-methyl-3-oxo-2,3-dihydro-1H-pyrazol-4-yl]-4-(difluoromethoxy)benzamide] | 13 | > 10000
7 | COc1cc(F)c(-c2c(NC(=O)c3ccc(OC(F)F)cc3)c(=O)n(-c3nc(C(F)(F)F)ccc3Br)n2C)c(F)c1 [Example 159, N-{2-[3-bromo-6-(trifluoromethyl)pyridin-2-yl]-5-(2,6-difluoro-4-methoxyphenyl)-1-methyl-3-oxo-2,3-dihydro-1H-pyrazol-4-yl}-4-(difluoromethoxy)benzamide] | 7 | > 10000
8 | COc1cc(F)c(-c2c(NC(=O)c3ccc(OC(F)F)cc3)c(=O)n(-c3nc(C4CC4)ccc3Br)n2C)c(F)c1 [Example 160, N-[2-(3-bromo-6-cyclopropylpyridin-2-yl)-5-(2,6-difluoro-4-methoxyphenyl)-1-methyl-3-oxo-2,3-dihydro-1H-pyrazol-4-yl]-4-(difluoromethoxy)benzamide] | 3 | > 10000
9 | COc1cc(F)c(-c2c(NC(=O)c3ccc(OC(F)F)cc3)c(=O)n(-c3nc(C4CC4)ccc3C#N)n2C)c(F)c1 [Example 161, N-[2-(3-cyano-6-cyclopropylpyridin-2-yl)-5-(2,6-difluoro-4-methoxyphenyl)-1-methyl-3-oxo-2,3-dihydro-1H-pyrazol-4-yl]-4-(difluoromethoxy)benzamide] | 4 | > 10000
10 | COc1cc(-n2c(=O)c(NC(=O)c3ccc(OC(F)F)cc3)c(-c3c(F)cc(OC)cc3F)n2C)nc(C(F)(F)F)c1 [Example 162, N-[5-(2,6-difluoro-4-methoxyphenyl)-2-[4-methoxy-6-(trifluoromethyl)pyridin-2-yl]-1-methyl-3-oxo-2,3-dihydro-1H-pyrazol-4-yl]-4-(difluoromethoxy)benzamide] | 12 | > 10000
11 | CCc1cccc(-n2c(=O)c(NC(=O)c3ccc(OC(F)F)cc3)c(-c3c(F)cc(OC)cc3F)n2C)n1 [Example 163, N-[5-(2,6-difluoro-4-methoxyphenyl)-2-(6-ethylpyridin-2-yl)-1-methyl-3-oxo-2,3-dihydro-1H-pyrazol-4-yl]-4-(difluoromethoxy)benzamide] | 4 | > 10000

Further lines, results first:

Row | EC50 [1] [nM] | EC50 [2] [nM] | SMILES
12 | 15 | > 10000 | COc1cc(F)c(-c2c(NC(=O)c3ccc(Cl)cc3)c(=O)n(-c3ncccc3Cl)n2C)c(F)c1 [Example 164, 4-chloro-N-[2-(3-chloropyridin-2-yl)-5-(2,6-difluoro-4-methoxyphenyl)-1-methyl-3-oxo-2,3-dihydro-1H-pyrazol-4-yl]benzamide]
13 | 15 | > 10000 | COc1cc(F)c(-c2c(NC(=O)c3ccc(OC(F)F)cc3)c(=O)n(-c3ncccc3Br)n2C)c(F)c1 [Example 165, N-[2-(3-bromopyridin-2-yl)-5-(2,6-difluoro-4-methoxyphenyl)-1-methyl-3-oxo-2,3-dihydro-1H-pyrazol-4-yl]-4-(difluoromethoxy)benzamide]
14 | 20 | > 10000 | CCc1cccnc1-n1c(=O)c(NC(=O)c2ccc(OC(F)F)cc2)c(-c2c(F)cc(OC)cc2F)n1C [Example 166, N-[5-(2,6-difluoro-4-methoxyphenyl)-2-(3-ethylpyridin-2-yl)-1-methyl-3-oxo-2,3-dihydro-1H-pyrazol-4-yl]-4-(difluoromethoxy)benzamide]
15 | 4 | 460 | COc1cc(F)c(-c2c(NC(=O)c3ccc(OC(F)(F)F)cc3)c(=O)n(-c3cccc(C4CC4)n3)n2C)c(F)c1 [Example 167, N-[2-(6-cyclopropylpyridin-2-yl)-5-(2,6-difluoro-4-methoxyphenyl)-1-methyl-3-oxo-2,3-dihydro-1H-pyrazol-4-yl]-4-(trifluoromethoxy)benzamide]
16 | 12 | > 10000 | COc1cc(F)c(-c2c(NC(=O)c3ccc(OC(F)F)cc3)c(=O)n(-c3cccc(OC(F)F)n3)n2C)c(F)c1 [Example 168, N-[5-(2,6-difluoro-4-methoxyphenyl)-2-[6-(difluoromethoxy)pyridin-2-yl]-1-methyl-3-oxo-2,3-dihydro-1H-pyrazol-4-yl]-4-(difluoromethoxy)benzamide]
17 | 15 | 1400 | COc1cc(F)c(-c2c(NC(=O)c3ccc(OC(F)(F)F)cc3)c(=O)n(-c3cccc(OC(F)F)n3)n2C)c(F)c1 [Example 169, N-[5-(2,6-difluoro-4-methoxyphenyl)-2-[6-(difluoromethoxy)pyridin-2-yl]-1-methyl-3-oxo-2,3-dihydro-1H-pyrazol-4-yl]-4-(trifluoromethoxy)benzamide]
18 | 8 | > 10000 | COc1cc(F)c(-c2c(NC(=O)c3ccc(OC(F)(F)F)cc3)c(=O)n(-c3cccnc3C#N)n2C)c(F)c1 [Example 170, N-[2-(2-cyanopyridin-3-yl)-5-(2,6-difluoro-4-methoxyphenyl)-1-methyl-3-oxo-2,3-dihydro-1H-pyrazol-4-yl]-4-(trifluoromethoxy)benzamide]
19 | 12 | > 10000 | COc1cc(F)c(-c2c(NC(=O)c3ccc(OC(F)F)cc3)c(=O)n(-c3ccccc3Cl)n2C)c(F)c1 [Example 171, N-[2-(2-chlorophenyl)-5-(2,6-difluoro-4-methoxyphenyl)-1-methyl-3-oxo-2,3-dihydro-1H-pyrazol-4-yl]-4-(difluoromethoxy)benzamide]
20 | 13 | 3300 | COc1cc(F)c(-c2c(NC(=O)c3ccc(OC(F)(F)F)cc3)c(=O)n(-c3ccccc3Cl)n2C)c(F)c1 [Example 172, N-[2-(2-chlorophenyl)-5-(2,6-difluoro-4-methoxyphenyl)-1-methyl-3-oxo-2,3-dihydro-1H-pyrazol-4-yl]-4-(trifluoromethoxy)benzamide]
21 | 20 | > 10000 | COc1cc(F)c(-c2c(NC(=O)c3ccc(OC(F)F)cc3)c(=O)n(-c3ccccc3C#N)n2C)c(F)c1 [Example 173, N-[2-(2-cyanophenyl)-5-(2,6-difluoro-4-methoxyphenyl)-1-methyl-3-oxo-2,3-dihydro-1H-pyrazol-4-yl]-4-(difluoromethoxy)benzamide]
22 | 7 | > 10000 | COc1cc(F)c(-c2c(NC(=O)c3ccc(OC(F)(F)F)cc3)c(=O)n(-c3ccccc3C#N)n2C)c(F)c1 [Example 174, N-[2-(2-cyanophenyl)-5-(2,6-difluoro-4-methoxyphenyl)-1-methyl-3-oxo-2,3-dihydro-1H-pyrazol-4-yl]-4-(trifluoromethoxy)benzamide]

Source: patent publication US12577206B2 (BRISTOL-MYERS SQUIBB COMPANY, priority 2020, dated 2026)
